# According to patent US12685777B2, “Compositions, systems, and methods for modulating a target gene” (The Board of Trustees of the Leland Stanford Junior …, priority 2022, dated 2026):
# Assays:
# [1] = system: DMS-79; assay: Dose response on viability of small cell lung cancer line, resazurin assay; assay type: cell-based; conditions: Homo sapiens; DMS-79, 72 h treatment
# Experimental: (§1) IC50 of JWZ-7-7, BI-3812, JQ1, and combinations were calculated based on a dose response curve on three small cell lung cancer lines (FIG. 5). The dose response curve on viability was performed in technical replicates and biological triplicate after treating cells for 72 hours across a broad range of concentrations via serial dilutions. Viable cells were measured after treatment via a resazurin assay. The signal for viable assays was normalized to the DMSO treated negative control. A four-parameter non-linear fit was performed to fit a curve to calculate the IC50 for each of the cell lines. The table below describes the calculated IC50 across JWZ-7-7, JQ1, BI-3812 and combination of JQ1 and BI-3812 after 72 h treatment in technical replicates and biological triplicates.
# [2] = system: NCI-H1105; assay: as above; assay type: cell-based; conditions: NCI-H1105, 72 h treatment; read-out: IC50
# Experimental: as §1
# [3] = system: NCI-H2196; assay: as above; assay type: cell-based; conditions: Homo sapiens; NCI-H2196, 72 h treatment
# Experimental: as §1
# [4] = system: primary human tonsillar lymphocytes; assay: Cell viability of primary human tonsillar lymphocytes; assay type: cell-based; conditions: 72 hours, read-out: EC50 of killing of lymphocytes
# Experimental: Lymphoma and leukemia cells were cultured in RPMI-1640 (ATCC 30-2001)+10% FBS with antibiotics (100× PenStrep GIBCO #15140122). Primary human fibroblasts were obtained from ATCC (#CRL2522), cultured in DMEM+10% FBS with antibiotics and used at passages 3-5. Primary human tonsillar lymphocytes were a kind gift from M. M. Davis. Cells were routinely checked for mycoplasma and immediately checked upon suspicion. No cultures tested positive.
# (§2) 30,000 cells were plated in 100 μL media per well of a 96 well plate and treated with drug for indicated times and doses. A resazurin-based indicator of cell health (PrestoBlue, ThermoFisher #P50200) was added for 1.5 hours after which the fluorescence ratio at 560/590 nm was recorded. The background fluorescence was subtracted and the signal was normalized to DMSO-treated cells. EC50 measurements on cell lines were done with 4 biological repeats by separate cell passages maintained by 3 independent investigators. Fit of dose-response curves to data and statistical analysis was performed using drc package in R using the four-parameter log-logistic function.
# After treatment, mouse tissue was harvested for RNA-seq and histology. […] Serum concentrations after 8 hours were -100 to 400-fold higher than therapeutic doses (FIG. 37, Panel C).
# [5] = system: BCL6 reporter; assay: BCL6 reporter assay (GFP) in KARPAS422 cells; assay type: cell-based, human; conditions: KARPAS422, 8 hours
# Experimental: KARPAS422 cells were lentivirally transduced with a construct containing the reporter. […] Cells were washed in 2.5% FBS/PBS, 1:250 v/v of 7-AAD was added to distinguish live from dead cells, and harvested for flow cytometry on a BD Accuri. The GFP-positive gate were drawn off non-transduced cells and normalized to cells treated with DMSO.
# [6] = system: KARPAS422; assay: Annexin V / 7-AAD apoptosis assay in KARPAS422 cells; assay type: cell-based, human
# Experimental: For annexin V assays, 500,000 cells plated at 1 M/mL treated with drug for indicated timepoints and doses were harvested on ice and washed twice in 2.5% FBS/PBS. 2.5 μL of 7-AAD and 2.5 μL of FITC-Annexin V (Biolegend #640922) were added. Cells were incubated for 15 minutes at RT, then immediately measured on a BD Accuri. Gates were drawn based off single-stain and no-stain controls. For cell cycle and TUNEL analysis, cells plated at 1 M/mL were treated with drug for indicated timepoints and doses and pulsed with 10 μM ethynyl-EdU (Thermo #C10424) for 2 hours prior to harvesting on ice. 1 M cells were counted and washed in 2.5% FBS/PBS. Cells were resuspended at 10 M/mL and fixed in 4% PFA, washed, and permeabilized in 0.5% Triton-X100/PBS. […] After washes, the sample was incubated with 2 μL 7-AAD and 5 μL RNAseA for 30 minutes at RT in the dark, washed, and measured on a BD Accuri. Gates were drawn based off single-stain and no-stain controls and kept constant across conditions.
# [7] = Mouse tolerability and pharmacokinetic study; assay type: in vivo
# Experimental: Vehicle was the same formulation (5/5/80 DMSO/Tween-80/Saline). The formulation was checked to be a clear solution and after administration, the animal was put back in its cage. For PK properties, plasma levels were measured at 0, 5, 15, 30, 60, 120, 240, 360, and 480 mins after drug administration. For tolerability work, bodyweights and observation of animal health were recorded each day through 5 days of dosing once daily. After 5 days, tissues were collected 8 hours after the last drug administration and split into one part for RNA-seq, homogenized in TRIzoI (Thermo #15596026), another part for histology, snap-frozen, and another part for measurement of drug levels where molar concentrations were recorded with the assumption of 1 g tissue ~1 mL. FFPE blocks (on snap-frozen tissue) and H & E staining were done by the Stanford Histology/Pathology Service Core, by Prof. Hannes Vogel, MD and Pauline Chu.
# After treatment, mouse tissue was harvested for RNA-seq and histology.
# [8] = system: OCILY19; assay: Cell viability of OCILY19 DLBCL cells; assay type: cell-based
# Experimental: as §2
# The level of expression of BCOR, NCOR and SMRT, which engage PRC and HDACs to produce epigenetic suppression of target genes varied among the cell lines and could also contribute to the variation in sensitivity. […] Among the cell lines tested there was no evidence that killing required TP53, nor was there evidence of repression of killing by endogenous BCL2 levels (FIG. 28, Panel B).
# [9] = C57BL/6 mice, 10 mg/kg IP once daily for 5 days
# [10] = RNA-seq, 10 mg/kg IP q.d. 5 days
SMILES,IC50 [1],IC50 [2],IC50 [3],EC50 [4],Activation of BCL6 reporter [5],EC50 ([5]; read-out: EC50 of BCL6 reporter activation),Time to detectable apoptosis [6],"Body weight change [7, 9]","H & E staining and examination of tissue [7, 9]","Tolerability [7, 9]","Genes downregulated in the liver [7, 10]","Genes downregulated in the lung [7, 10]","Genes downregulated in the spleen [7, 10]","Genes upregulated in the liver [7, 10]","Genes upregulated in the lung [7, 10]","Genes upregulated in the spleen [7, 10]",Response of a DLBCL line with no detectable BCL6 [8]
"CNC(=O)COc1cc2cc(Nc3nc(N4CCC(C(=O)NCCCCCCCNC(=O)C[C@@H]5N=C(c6ccc(Cl)cc6)c6c(sc(C)c6C)-n6c(C)nnc65)CC4)ncc3Cl)cc(OC)c2n(C)c1=O [JWZ-7-7, (S)-1-(5-chloro-4-((8-methoxy-1-methyl-3-(2-(methylamino)-2-oxoethoxy)-2-oxo-1,2-dihydroquinolin-6-yl)amino)pyrimidin-2-yl)-N-(7-(2-(4-(4-chlorophenyl)-2,3,9-trimethyl-6H-thieno[3,2-f][1,2,4]triazolo[4,3-a][1,4]diazepin-6-yl)acetamido)heptyl)piperidine-4-carboxamide]",66 nM,75 nM,81 nM,,,,,,,,,,,,,,
CNC(=O)COc1cc2cc(Nc3nc(N4CCC(C(=O)NCCCCCCCNC(=O)C[C@@H]5N=C(c6ccc(Cl)cc6)c6c(sc(C)c6C)-n6c(C)nnc65)CC4)ncc3Cl)cc(OC)c2n(C)c1=O [TCIP1],,,,210 nM,about 25 fold,5 nM,4 to 8 h,no significant changes in mouse body weight,did not reveal noticeable abnormalities,well-tolerated with no adverse effects noticed,167 genes,204 genes,"2,471 genes",255 genes,301 genes,"2,785 genes",little or no response
